Data from PubChem BioAssay (NCI).
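Compound exposure: 48 hours, 5 concentrations, 96-well plates. GI50: concentration for 50% inhibition of growth. The concentration for full growth arrest is given as TGI.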

How the values were obtained:
Test in all cases: NCI-60 cell line screen, 48 h
[1] = system: OVCAR-5 ovarian
[2] = system: CAKI-1 renal
[3] = system: A498 renal
[4] = system: EKVX NSCLC
[5] = system: NCI-H23 lung
[6] = system: SF-295 CNS
[7] = system: CCRF-CEM leukemia
[8] = system: T-47D breast
[9] = system: HOP-92 NSCLC
[10] = system: SK-MEL-5 melanoma
[11] = system: SK-MEL-2 melanoma
[12] = system: BT-549 breast
[13] = system: A549 NSCLC
[14] = system: SNB-75 CNS
[15] = system: ACHN renal
[16] = system: IGROV1 ovarian
[17] = system: HT29 colon
[18] = system: MDA-MB-435
[19] = system: K-562 leukemia
[20] = system: COLO 205 colon
[21] = system: TK-10 renal
[22] = system: HCC-2998 colon
[23] = system: NCI/ADR-RES ovarian
[24] = system: MCF7 breast
[25] = system: RPMI-8226 leukemia
[26] = system: MALME-3M melanoma
[27] = system: UACC-62 melanoma
[28] = system: UO-31 renal
[29] = system: OVCAR-8 ovarian
[30] = system: NCI-H460 lung
[31] = system: OVCAR-3 ovarian
[32] = system: KM12 colon
[33] = system: LOX IMVI melanoma
[34] = system: SNB-19 CNS
[35] = system: PC-3 prostate
[36] = system: M14 melanoma
[37] = system: HS 578T breast
[38] = system: SW-620 colon
[39] = system: MDA-MB-231 breast
[40] = system: OVCAR-4 ovarian
[41] = system: SF-268 CNS
[42] = system: NCI-H226 lung
[43] = system: HOP-62 NSCLC
[44] = system: NCI-H522 lung
[45] = system: HL-60(TB) leukemia
[46] = system: MOLT-4 leukemia
[47] = system: SR leukemia
[48] = system: SK-MEL-28 melanoma
[49] = system: U251 CNS
[50] = system: HCT-116 colon
[51] = system: RXF 393 renal
[52] = system: SK-OV-3 ovarian
[53] = system: HCT-15 colon
[54] = system: DU-145 prostate
[55] = system: UACC-257 melanoma
[56] = system: SF-539 CNS
[57] = system: 786-0 renal
[58] = system: SN12C renal

For `CCN(CC)CCOc1ccc(C(=C(C)c2ccc(OC)cc2)c2ccc(OCCN(CC)CC)cc2)cc1`, the GI50 [1] was 1570 nM, the TGI [1] was 5680 nM and the GI50 [2] was 978 nM. It also gave a TGI [2] of 2300 nM, a GI50 [3] of 997 nM and a TGI [3] of 2470 nM. For the same molecule, the GI50 [4] was 2010 nM, the TGI [4] was 8150 nM and the GI50 [5] was 1470 nM. The TGI [5] was 5520 nM, the GI50 [6] was 883 nM and the TGI [6] was 1750 nM. The GI50 [7] was 1260 nM, the TGI [7] was 5870 nM and the GI50 [8] was 747 nM. The TGI [8] was 2070 nM, the GI50 [9] was 627 nM and the TGI [9] was 1890 nM. For the same molecule, the GI50 [10] was 873 nM, the TGI [10] was 1630 nM and the GI50 [11] was 1030 nM. The TGI [11] was 2140 nM, the GI50 [12] was 1030 nM and the TGI [12] was 2920 nM. It also gave a GI50 [13] of 1520 nM, a TGI [13] of 6020 nM and a GI50 [14] of 7590 nM. It also gave a TGI [14] of 17500 nM, a GI50 [15] of 1140 nM and a TGI [15] of 2750 nM. The GI50 [16] was 1290 nM, the TGI [16] was 3100 nM and the GI50 [17] was 665 nM. It also gave a TGI [17] of 2030 nM, a GI50 [18] of 903 nM and a TGI [18] of 1760 nM. For the same molecule, the GI50 [19] was 874 nM, the TGI [19] was 3800 nM and the GI50 [20] was 1060 nM. It also gave a TGI [20] of 2350 nM, a GI50 [21] of 1150 nM and a TGI [21] of 3280 nM. The GI50 [22] was 1050 nM, the TGI [22] was 2390 nM and the GI50 [23] was 1700 nM. It also gave a TGI [23] of 6500 nM, a GI50 [24] of 275 nM and a TGI [24] of 1100 nM. The GI50 [25] was 1140 nM, the TGI [25] was 3240 nM and the GI50 [26] was 832 nM. The TGI [26] was 1640 nM, the GI50 [27] was 887 nM and the TGI [27] was 1700 nM. The GI50 [28] was 789 nM, the TGI [28] was 1500 nM and the GI50 [29] was 1680 nM. For the same molecule, the TGI [29] was 6370 nM, the GI50 [30] was 1440 nM and the TGI [30] was 4470 nM. It also gave a GI50 [31] of 1240 nM, a TGI [31] of 3620 nM and a GI50 [32] of 1800 nM. The TGI [32] was 6950 nM, the GI50 [33] was 530 nM and the TGI [33] was 1220 nM. It also gave a GI50 [34] of 1610 nM, a TGI [34] of 5390 nM and a GI50 [35] of 1180 nM. The TGI [35] was 4290 nM, the GI50 [36] was 936 nM and the TGI [36] was 1890 nM. It also gave a GI50 [37] of 1090 nM, a TGI [37] of 3150 nM and a GI50 [38] of 936 nM. For the same molecule, the TGI [38] was 2020 nM, the GI50 [39] was 973 nM and the TGI [39] was 2080 nM. It also gave a GI50 [40] of 1060 nM, a TGI [40] of 2460 nM and a GI50 [41] of 1210 nM. It also gave a TGI [41] of 3430 nM, a GI50 [42] of 2430 nM and a TGI [42] of 10300 nM. It also gave a GI50 [43] of 1440 nM, a TGI [43] of 4760 nM and a GI50 [44] of 1010 nM. It also gave a TGI [44] of 2240 nM, a GI50 [45] of 1270 nM and a TGI [45] of 2860 nM. For the same molecule, the GI50 [46] was 1340 nM, the TGI [46] was 5250 nM and the GI50 [47] was 289 nM. For the same molecule, the TGI [47] was 50000 nM, the GI50 [48] was 856 nM and the TGI [48] was 1620 nM. The GI50 [49] was 876 nM, the TGI [49] was 2000 nM and the GI50 [50] was 614 nM. For the same molecule, the TGI [50] was 1600 nM, the GI50 [51] was 738 nM and the TGI [51] was 1500 nM. The GI50 [52] was 1270 nM, the TGI [52] was 3170 nM and the GI50 [53] was 731 nM. The TGI [53] was 1870 nM, the GI50 [54] was 2090 nM and the TGI [54] was 8170 nM. For the same molecule, the GI50 [55] was 942 nM, the TGI [55] was 1880 nM and the GI50 [56] was 875 nM. For the same molecule, the TGI [56] was 1650 nM, the GI50 [57] was 761 nM and the TGI [57] was 1800 nM. For the same molecule, the GI50 [58] was 972 nM and the TGI [58] was 2400 nM.
`CC(C)(C)c1ccc(C(=O)Nc2sc3c(c2C(N)=O)CCC(O)C3)cc1` (stereo not given) gave a GI50 [1] of 3140 nM, a TGI [1] of 17400 nM and a GI50 [2] of 109 nM. The TGI [2] was 3610 nM, the GI50 [3] was 1460 nM and the TGI [3] was 4790 nM. The GI50 [4] was 3520 nM, the TGI [4] was 18500 nM and the GI50 [5] was 4160 nM. The TGI [5] was 22800 nM, the GI50 [6] was 582 nM and the TGI [6] was 2540 nM. It also gave a GI50 [7] of 2010 nM, a TGI [7] of 10600 nM and a GI50 [8] of 625 nM. For the same molecule, the TGI [8] was 14800 nM, the GI50 [9] was 2740 nM and the TGI [9] was 16500 nM. It also gave a GI50 [10] of 908 nM, a TGI [10] of 3700 nM and a GI50 [11] of 4460 nM. It also gave a TGI [11] of 19000 nM, a GI50 [12] of 3130 nM and a TGI [12] of 14200 nM. For the same molecule, the GI50 [13] was 2230 nM, the TGI [13] was 33000 nM and the GI50 [14] was 3180 nM. It also gave a TGI [14] of 15100 nM, a GI50 [15] of 321 nM and a TGI [15] of 13200 nM. For the same molecule, the GI50 [16] was 3240 nM, the TGI [16] was 18500 nM and the GI50 [17] was 569 nM. For the same molecule, the TGI [17] was 3230 nM, the GI50 [18] was 422 nM and the TGI [18] was 15600 nM. It also gave a GI50 [19] of 50.7 nM, a TGI [19] of 1220 nM and a GI50 [20] of 377 nM. For the same molecule, the TGI [20] was 1720 nM, the GI50 [21] was 4370 nM and the TGI [21] was 18400 nM. The GI50 [22] was 1050 nM, the TGI [22] was 6780 nM and the GI50 [23] was 2330 nM. For the same molecule, the TGI [23] was 31700 nM, the GI50 [24] was 753 nM and the TGI [24] was 10500 nM. For the same molecule, the GI50 [25] was 2000 nM, the TGI [25] was 5420 nM and the GI50 [26] was 4160 nM. For the same molecule, the TGI [26] was 17000 nM, the GI50 [27] was 333 nM and the TGI [27] was 19900 nM. For the same molecule, the GI50 [28] was 2030 nM, the TGI [28] was 12800 nM and the GI50 [29] was 2640 nM. The TGI [29] was 87400 nM, the GI50 [30] was 493 nM and the TGI [30] was 10600 nM. The GI50 [31] was 3110 nM, the TGI [31] was 13300 nM and the GI50 [32] was 365 nM. For the same molecule, the TGI [32] was 3150 nM, the GI50 [33] was 228 nM and the TGI [33] was 1750 nM. It also gave a GI50 [34] of 8940 nM, a TGI [34] of 21200 nM and a GI50 [35] of 2770 nM. For the same molecule, the TGI [35] was 16400 nM, the GI50 [36] was 995 nM and the TGI [36] was 4710 nM. The GI50 [37] was 4180 nM, the TGI [37] was 35100 nM and the GI50 [38] was 597 nM. The TGI [38] was 11000 nM, the GI50 [39] was 2170 nM and the TGI [39] was 5320 nM. The GI50 [40] was 747 nM, the TGI [40] was 17100 nM and the GI50 [41] was 4390 nM. For the same molecule, the TGI [41] was 17900 nM, the GI50 [42] was 2960 nM and the TGI [42] was 27000 nM. The GI50 [43] was 1420 nM, the TGI [43] was 8650 nM and the GI50 [45] was 1770 nM. It also gave a TGI [45] of 15000 nM, a GI50 [46] of 1650 nM and a TGI [46] of 11500 nM. The GI50 [47] was 312 nM, the TGI [47] was 4870 nM and the GI50 [48] was 2950 nM. For the same molecule, the TGI [48] was 15100 nM, the GI50 [49] was 3950 nM and the TGI [49] was 19600 nM. It also gave a GI50 [50] of 1140 nM, a TGI [50] of 11500 nM and a GI50 [51] of 1770 nM. The TGI [51] was 4930 nM, the GI50 [52] was 3440 nM and the TGI [52] was 19200 nM. The GI50 [53] was 729 nM, the TGI [53] was 10400 nM and the GI50 [54] was 2700 nM. For the same molecule, the TGI [54] was 17400 nM, the GI50 [55] was 1270 nM and the TGI [55] was 10100 nM. It also gave a GI50 [56] of 1390 nM, a TGI [56] of 7190 nM and a GI50 [57] of 1980 nM. It also gave a TGI [57] of 6350 nM, a GI50 [58] of 6330 nM and a TGI [58] of 22200 nM.
